Experimental data as given in PMC8054307 (The Journal of pharmacy and pharmacology, 2018).
“Also recorded” adds a separate entry of the source.

Assays:
[1] = system: human α1 acidic glycoprotein (AGP); experiment: Protein binding by ultrafiltration, AGP; type: in vitro ADME; conditions: 45 μM AGP, CdG 500 ng/ml
ETV-resistant HBV = conditions: oral 0.02 mg/kg/day, hu-liver-chimeric mice; cited from earlier work
[2] = 2 days after administration; another study of the authors, ref not given; cited from earlier work
[3] = Tissue distribution of CdG to liver and kidney in rats; type: in vivo, Male Sprague-Dawley rats; conditions: 9 h after i.v. or p.o. 1 mg/kg
wild-type HBV [4] = conditions: oral 0.02 mg/kg/day, hu-liver-chimeric mice; cited from earlier work
[5] = target: human serum albumin (HSA) (Homo sapiens, UniProt P02768); experiment: Protein binding by ultrafiltration, HSA; type: in vitro ADME; conditions: 600 μM HSA, CdG 500 ng/ml
Sequence of human serum albumin (HSA) (P02768 25-609): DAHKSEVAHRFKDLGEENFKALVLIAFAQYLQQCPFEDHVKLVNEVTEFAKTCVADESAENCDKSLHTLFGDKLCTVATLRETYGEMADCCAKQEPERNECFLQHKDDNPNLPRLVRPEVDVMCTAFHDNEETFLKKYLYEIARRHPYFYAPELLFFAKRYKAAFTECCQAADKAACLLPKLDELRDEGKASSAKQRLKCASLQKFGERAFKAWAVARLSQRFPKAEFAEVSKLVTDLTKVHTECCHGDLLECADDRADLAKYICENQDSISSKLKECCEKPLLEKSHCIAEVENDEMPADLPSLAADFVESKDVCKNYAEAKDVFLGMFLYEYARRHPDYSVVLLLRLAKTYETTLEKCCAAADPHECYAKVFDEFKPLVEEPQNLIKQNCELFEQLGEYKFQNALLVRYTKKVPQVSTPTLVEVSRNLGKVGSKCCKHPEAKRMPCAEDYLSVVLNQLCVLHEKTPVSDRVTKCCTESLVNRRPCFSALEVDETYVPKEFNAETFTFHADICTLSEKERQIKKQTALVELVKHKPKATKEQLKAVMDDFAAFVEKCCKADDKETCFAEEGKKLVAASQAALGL

[6] = Urinary excretion of CdG in rats; type: in vivo, Male Sprague-Dawley rats; conditions: for amount of unchanged CdG accumulated in urine: 9 h after administration
[7] = Protein binding by ultrafiltration, human plasma; type: in vitro ADME; conditions: pooled human plasma
[8] = Pharmacokinetic study of CdG in rats after i.v. and p.o. administration; type: in vivo, Male Sprague-Dawley rats; conditions: 1 mg/kg; for half-life: t1/2, rats
[9] = Pharmacokinetic study of CdG and ETV oral co-administration in rats; type: in vivo; conditions: male, Sprague-Dawley, rat, plasma, 1 mg/kg
[10] = system: cytochrome P450 (CYP450) enzyme system; experiment: Metabolism by CYP450; type: in vitro ADME; conditions: data not shown
wild-type HBV [11] = conditions: read-out: half-maximal inhibitory concentration (IC50); cited from earlier work
[12] = rat, in vivo, po; cited from earlier work
[13] = system: cytochrome P450 (CYP450) enzyme system; conditions: cited from earlier work
[14] = male, Sprague-Dawley, rat, plasma, iv
[15] = male, Sprague-Dawley, rat, plasma, po

N#C[C@]1(CO)O[C@@H](n2cnc3c(=O)[nH]c(N)nc32)C[C@@H]1O [CdG, 4′-cyano-2′-deoxyguanosine]
binding rate to AGP [1]: about 13.5 ± 0.01% | replication of ETV-resistant HBV (ETV-resistant HBV): significantly blocked | amount accumulated in the urine, % of the given dose [2]: about 40% | distribution to liver vs kidney [3]: higher levels of CdG were distributed to the liver than the kidney; also recorded: distributed to the liver rather than kidney | replication of wild-type HBV (wild-type HBV [4]): significantly blocked | binding rate to HSA [5]: about 11.6 ± 0.01% | form excreted into the urine ([6]; LC/MS chromatographic profile of urine): unchanged form | urinary excretion, % of the given dose ([6]; i.v. 1 mg/kg, 9 h): 45% | amount of unchanged CdG accumulated in urine ([6]; i.v. 1 mg/kg): about 113 μg | amount of unchanged CdG accumulated in urine ([6]; p.o. 1 mg/kg): ~49 µg | fraction unbound at 500 ng/ml [7]: ~0.393 | AUC [8, 14]: 123 ± 28.1 ng·h/mL | MRT [8, 14]: 29.4 ± 3.6 min | Vd [8, 14]: 4.08 ± 0.62 L/kg | clearance [8, 14]: 141 mL/min/kg | half-life [8, 14]: 30 min | AUC [8, 15]: 90.1 ± 5.75 ng·h/mL | CL/F [8, 15]: 185 mL/min/kg | Cmax [8, 15]: 53.8 ± 8.63 ng/mL | MRT [8, 15]: 82.8 ± 7.2 min | Tmax [8, 15]: 45 min | half-life ([8]; male, Sprague-Dawley, rat, plasma, po, CdG alone): 42 min | time to reach undetectable plasma levels after administration ([8]; rats, i.v. and p.o.): ≤ 9 h | t1/2 ([8]; rats, p.o., CdG alone): 43.8 ± 7.2 min | Tmax [9]: 45 min | metabolism by CYP450 [10]: rarely metabolized by CYP450 | IC50 (wild-type HBV [11]): 0.4 nM

C=C1[C@H](CO)[C@@H](O)C[C@@H]1n1cnc2c(=O)[nH]c(N)nc21 [ETV, entecavir]
bioavailability [12]: approximately 78% | substrate for the CYP450 enzyme system [13]: not a substrate

CC(C)(C)C(=O)OCOP(=O)(COCCn1cnc2c(N)ncnc21)OCOC(=O)C(C)(C)C [adefovir dipivoxil]
bioavailability [12]: approximately 50%
